The results in this text go back to US11427556B2, “Urea derivatives as inhibitors of ASK1” (Hepagene Therapeutics (HK) Limited, priority 2017, dated 2022).

The structures appear in SMILES notation. Read-outs that look alike come from different tables or passages of the source.

This test addresses T1, Recombinant human ASK1 kinase (Homo sapiens, UniProt Q99683).
T1 construct: purchased Invitrogen Inc
T1 sequence (Q99683 1-1374): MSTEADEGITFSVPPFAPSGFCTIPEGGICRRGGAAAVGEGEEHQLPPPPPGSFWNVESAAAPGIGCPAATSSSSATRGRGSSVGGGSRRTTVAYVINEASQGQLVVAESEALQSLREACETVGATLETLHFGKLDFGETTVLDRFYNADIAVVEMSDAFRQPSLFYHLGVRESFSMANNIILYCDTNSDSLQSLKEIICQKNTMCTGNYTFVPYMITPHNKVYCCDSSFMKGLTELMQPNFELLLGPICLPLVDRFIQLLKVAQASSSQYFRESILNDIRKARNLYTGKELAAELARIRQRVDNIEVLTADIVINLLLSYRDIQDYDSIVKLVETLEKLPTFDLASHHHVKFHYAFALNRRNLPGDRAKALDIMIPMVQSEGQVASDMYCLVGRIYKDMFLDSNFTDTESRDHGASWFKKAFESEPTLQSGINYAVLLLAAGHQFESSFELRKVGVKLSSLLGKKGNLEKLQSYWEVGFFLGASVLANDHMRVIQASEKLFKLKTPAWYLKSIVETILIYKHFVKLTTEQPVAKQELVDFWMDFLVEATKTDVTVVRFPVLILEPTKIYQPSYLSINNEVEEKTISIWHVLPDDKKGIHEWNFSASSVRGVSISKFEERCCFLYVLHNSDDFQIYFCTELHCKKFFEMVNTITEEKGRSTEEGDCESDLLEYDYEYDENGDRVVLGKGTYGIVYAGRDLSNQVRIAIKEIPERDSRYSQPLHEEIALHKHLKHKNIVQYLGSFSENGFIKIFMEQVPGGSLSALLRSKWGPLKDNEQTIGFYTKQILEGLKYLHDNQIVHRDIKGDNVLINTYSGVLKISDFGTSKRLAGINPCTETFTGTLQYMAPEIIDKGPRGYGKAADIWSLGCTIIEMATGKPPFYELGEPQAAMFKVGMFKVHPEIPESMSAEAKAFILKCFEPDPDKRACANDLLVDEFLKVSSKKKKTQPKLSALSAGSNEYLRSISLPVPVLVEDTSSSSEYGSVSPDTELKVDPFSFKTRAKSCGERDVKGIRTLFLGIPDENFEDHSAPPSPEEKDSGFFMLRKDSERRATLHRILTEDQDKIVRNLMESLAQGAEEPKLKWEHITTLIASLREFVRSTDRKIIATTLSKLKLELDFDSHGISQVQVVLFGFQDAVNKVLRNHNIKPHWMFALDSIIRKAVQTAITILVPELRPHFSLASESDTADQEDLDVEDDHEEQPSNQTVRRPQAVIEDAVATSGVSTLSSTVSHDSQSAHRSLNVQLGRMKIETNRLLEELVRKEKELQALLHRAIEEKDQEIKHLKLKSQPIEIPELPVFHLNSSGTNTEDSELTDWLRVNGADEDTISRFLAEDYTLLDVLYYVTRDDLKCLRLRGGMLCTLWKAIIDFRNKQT
The test is described as follows: ASK1 kinase HTRF assay (HTRF KinEASE-STK, phosphorylation of biotinylated peptide substrate). It counts as biochemical. The method, boiled down: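 HTRF KinEASE-STK read-out of biotinylated peptide phosphorylation. Compound incubated with 3 nM ASK1 and 1 uM STK-substrate-biotin in kinase buffer containing 5 mM MgCl2 and 1 mM DTT.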

[1] abbreviates: 3 nM ASK1 kinase, 1 uM STK-substrate-biotin, HTRF detection, read-out: EC50.

In the case of `Cc1ccc(NC(=O)Nc2cccc(-c3nncn3C(C)C)n2)nc1` [Compound I-001, 1-(6-(4-Isopropyl-4H-1,2,4-triazol-3-yl)pyridin-2-yl)-3-(5-methylpyridin-2-yl) urea], the EC50 under setting [1] was under 0.05 µM. Take `C[C@H](CO)n1cnnc1-c1cccc(N2CCN(c3ccc(N4CCNCC4)cn3)C2=O)n1` [Compound V-22]: under setting [1], the EC50 is under 0.05 µM.

Consider `CC(C)n1cnnc1-c1cccc(NC(=O)Nc2cc(C(=O)N3CCN(C)CC3)ccn2)n1` [Compound I-141], for which the EC50 under setting [1] is under 0.05 µM. On the same count and under the same terms, the figure for `CC(C)n1cnnc1-c1cccc(NC(=O)Nc2ccc(F)cn2)n1` [Compound I-188] is under 0.05 µM; for `CC(n1cnnc1-c1cccc(NC(=O)Nc2ccccn2)n1)C(F)(F)F` (stereo not shown) [Compound I-003, 3-(Pyridin-2-yl)-1-[6-[4-(1,1,1-trifluoropropan-2-yl)-4H-1,2,4-triazol-3-yl]pyridin-2-yl]urea] it is under 0.05 µM.

As to `CC(C)n1cnnc1-c1cccc(NC(=O)Nc2cc(C(=O)N3CCCC3)ccn2)n1` [Compound I-145], the EC50 is under 0.05 µM. Regarding `C[C@H](CO)n1cnnc1-c1cccc(NC(=O)Nc2cc(C(=O)N3CCc4ccccc4C3)ccn2)n1` [Compound I-122], under setting [1], the EC50 was under 0.05 µM.

As to `CC(C)n1cnnc1-c1cccc(NC(=O)Nc2ccc(-n3ccnc3)cn2)n1` [Compound I-168], the EC50 under setting [1] was in the range of 0.05 to 0.5 µM. The same measure, in the same setting: the figure for `Cc1ccc(-n2ccn(-c3cccc(-c4nncn4C(C)C)n3)c2=O)nc1` [III-05] is under 0.05 µM; for `Cc1ccc(NC(=O)Nc2cccc(-c3nncn3C(C)C)n2)cc1` [Compound I-017] it is 0.05 to 0.5 µM.

Take `CC(C)n1cnnc1-c1cccc(NC(=O)Nc2cc(N3CCN(S(C)(=O)=O)CC3)ccn2)n1` [Compound I-102]: under setting [1], the EC50 was under 0.05 µM. The same measure, in the same setting: the figure for `C[C@H](CO)n1cnnc1-c1cccc(NC(=O)Nc2cc(C(=O)N3CCC(N4CCOCC4)CC3)ccn2)n1` [Compound I-131] is under 0.05 µM; for `CC(C)n1cnnc1-c1cccc(NC(=O)Nc2cc(C(=O)N3CCc4ccccc4C3)ccn2)n1` [Compound I-006, 1-(6-(4-Isopropyl-4H-1,2,4-triazol-3-yl)pyridin-2-yl)-3-(4-(1,2,3,4-tetrahydroisoquinoline-2-carbonyl)pyridin-2-yl)urea] it is under 0.05 µM. The same measure, in the same setting: the figure for `CC(C)n1cnnc1-c1cccc(NC(=O)Nc2cc(C(=O)N3CCC(C)(O)CC3)ccn2)n1` [Compound I-138] is under 0.05 µM. Consider `CC(C)n1cnnc1-c1cccc(NC(=O)Nc2cc3ccccc3cn2)n1` [Compound I-057], for which the EC50 is under 0.05 µM. `CC(C)n1cnnc1-c1cccc(NC(=O)Nc2ccc(C(C)(C)O)cn2)n1` [Compound I-214]: under setting [1], the EC50 is under 0.05 µM. Regarding `C[C@H](CO)n1cnnc1-c1cccc(NC(=O)Nc2cc(C(=O)N3CCCC3)ccn2)n1` [Compound I-146], the concentration for a half-maximal effect (EC50) is under 0.05 µM.

`CC(C)N1CCN(c2ccnc(NC(=O)Nc3cccc(-c4nncn4C(C)C)n3)c2)CC1` [Compound I-098]: the EC50 under setting [1] was under 0.05 µM. On the same count and under the same terms, the figure for `CC(C)n1cnnc1-c1cccc(NC(=O)Nc2cc(N3CCCC3)ccn2)n1` [Compound I-167] is under 0.05 µM. On the same count and under the same terms, the figure for `C[C@@H](CO)n1cnnc1-c1cccc(NC(=O)Nc2cc3ccccc3cn2)n1` [Compound I-059] is under 0.05 µM. `C[C@H](CO)n1cnnc1-c1cccc(NC(=O)Nc2cc(C(=O)N3CCCCCC3)ccn2)n1` [Compound I-148]: the EC50 under setting [1] is under 0.05 µM. Same read-out and setting: the figure for `CC(C)n1cnnc1-c1cccc(NC(=O)Nc2ncccc2OCc2ccccc2)n1` [Compound I-070] is under 0.05 µM; for `CC1CN(c2ccc(N3CCN(c4cccc(-c5nncn5C(C)C)n4)C3=O)nc2)CC(C)O1` (stereo not shown) [Compound V-16] it is under 0.05 µM; for `CC(C)n1cnnc1-c1cccc(NC(=O)Nc2cc(C(=O)NC3CCCCC3)ccn2)n1` [Compound I-151] it is under 0.05 µM. As to `C[C@H](CO)n1cnnc1-c1cccc(NC(=O)Nc2cc(C(=O)N3CCC(=O)CC3)ccn2)n1` [Compound I-135], the EC50 is under 0.05 µM. With `CC(C)[C@H](N)C(=O)OC[C@@H](C)n1cnnc1-c1cccc(NC(=O)Nc2cc3ccccc3cn2)n1` [Compound I-062], under setting [1], the EC50 is under 0.05 µM. The same measure, in the same setting: the figure for `CC(C)n1cnnc1-c1cccc(NC(=O)Nc2cc(C(=O)Nc3ccccn3)ccn2)n1` [Compound I-161] is under 0.05 µM; for `CC(C)n1cnnc1-c1cccc(-n2ccn(-c3ccc(C(=O)N4CCCCC4)cn3)c2=O)n1` [III-02, 1-(6-(4-Isopropyl-4H-1,2,4-triazol-3-yl)pyridin-2-yl)-3-(5-(piperidine-1-carbonyl)pyridin-2-yl)-1H-imidazol-2(3H)-one] it is under 0.05 µM.

On to `C[C@H](CO)n1cnnc1-c1cccc(N2CCN(c3ccc(N4CCOCC4)cn3)C2=O)n1` [Compound V-18], for which the EC50 under setting [1] is under 0.05 µM. Same read-out and setting: the figure for `CC(C)n1cnnc1-c1cccc(NC(=O)Nc2ncccc2I)n1` [Compound I-172] is under 0.05 µM; for `CC(C)n1cnnc1-c1cccc(NC(=O)Nc2cccc(C#N)n2)n1` [Compound I-200] it is under 0.05 µM; for `CC(C)n1cnnc1-c1cccc(NC(=O)Nc2cc(C(=O)N3CCCC[C@H]3C)ccn2)n1` [Compound I-120] it is under 0.05 µM. Same read-out and setting: the figure for `CC(C)n1cnnc1-c1cccc(-n2ccn(-c3ccc(N4CCOCC4)cn3)c2=O)n1` [III-03, 1-(6-(4-Isopropyl-4H-1,2,4-triazol-3-yl)pyridin-2-yl)-3-(5-morpholinopyridin-2-yl)-1H-imidazol-2(3H)-one] is under 0.05 µM; for `Cc1ccc(NC(=O)Nc2cccc(-c3nncn3C(C)CO)n2)nc1` (stereo not shown) [Compound I-035] it is under 0.05 µM. With `C[C@H](CO)n1cnnc1-c1cccc(NC(=O)Nc2cc(C(=O)N3CCCCC3)ccn2)n1` [Compound I-110], the EC50 is under 0.05 µM. With `CC(C)c1ccnc(NC(=O)Nc2cccc(-c3nncn3C(C)C)n2)c1` [Compound I-045], under setting [1], the EC50 is under 0.05 µM.

For the molecule `Cc1cc(F)c(NC(=O)Nc2cccc(-c3nncn3C(C)C)n2)cc1-n1cnc(C2CC2)c1` [Compound I-020], the concentration giving a half-maximal response (EC50) under setting [1] was in the range of 0.5 to 5 µM.

Take `CC(C)n1cnnc1-c1cccc(NC(=O)Nc2cc(S(=O)(=O)N3CCOCC3)ccn2)n1` [Compound I-207]: the EC50 under setting [1] is under 0.05 µM. Same read-out and setting: the figure for `CC(C)n1cnnc1-c1cccc(NC(=O)Nc2cc(C3CC3)ccn2)n1` [Compound I-047] is under 0.05 µM. On to `CC(C)n1cnnc1-c1cccc(NC(=O)Nc2cc(S(=O)(=O)Nc3ccccc3)ccn2)n1` [Compound I-014, 1-[4-(Phenylsulfamoyl)pyridin-2-yl]-3-[6-[4-(propan-2-yl)-4H-1,2,4-triazol-3-yl]pyridin-2-yl]urea], for which the EC50 under setting [1] was under 0.05 µM. On the same count and under the same terms, the figure for `C[C@@H](CO)n1cnnc1-c1cccc(NC(=O)Nc2cc(Cl)ccn2)n1` [Compound I-183] is under 0.05 µM; for `CC(C)n1cnnc1-c1cccc(NC(=O)Nc2cc(C(=O)N3CCC4(CCCCC4)CC3)ccn2)n1` [Compound I-128] it is under 0.05 µM.

Turning to `CC(C)n1cnnc1-c1cccc(NC(=O)Nc2ccc(C#N)cn2)n1` [Compound I-199], under setting [1], the half-maximal effective concentration (EC50) is under 0.05 µM. Still for that read-out and setting: the figure for `CC(C)n1cnnc1-c1cccc(NC(=O)Nc2cc(C(=O)Nc3ccc(-c4ccccc4)cc3)ccn2)n1` [Compound I-155] is under 0.05 µM. The same measure, in the same setting: the figure for `C[C@H](CO)n1cnnc1-c1cccc(NC(=O)Nc2cc(-c3ccccc3)ccn2)n1` [Compound I-078] is under 0.05 µM; for `C[C@H](CO)n1cnnc1-c1cccc(NC(=O)Nc2cc(C(=O)N3CCC4(CCCCC4)CC3)ccn2)n1` [Compound I-129] it is under 0.05 µM. Turning to `CC(C)n1cnnc1-c1cccc(NC(=O)Nc2cc(N3CCC(N4CCOCC4)CC3)ccn2)n1` [Compound I-106], the EC50 under setting [1] was under 0.05 µM. The same measure, in the same setting: the figure for `CC(C)n1cnnc1-c1cccc(NC(=O)Nc2ccc(CO)cn2)n1` [Compound I-208] is under 0.05 µM; for `CC(C)n1cnnc1-c1cccc(NC(=O)Nc2ncccc2O)n1` [Compound I-072] it is under 0.05 µM.

As usually defined, the EC50 is the concentration needed to bring the measured effect to its halfway point.
